Paper PMC11472058, “Trinucleotide cap analogs with triphosphate chain modifications: synthesis, properties, and evaluation as mRNA capping reagents” (Nucleic Acids Research, 2024)

Experiments:
Human Dcp2 = molecular target: T1, Human Dcp2 (Homo sapiens, UniProt Q8IU60); assay: RNA decapping assay with recombinant hDcp2; assay type: biochemical; conditions: for Susceptibility to hDcp2 (@30 min): fraction of decapped RNA after 30 min of incubation with hDcp2, 27-nt RNA capped with the analog, 37 °C, triplicates ± SD
T1 construct: made in house; host or cells: E. coli
Description: Human Dcp2 was expressed in E. coli and purified as described previously ([52]). Short 27 nt-capped RNAs (24.2 ng) were diluted with decapping buffer (50 mM Tris–HCl pH 8.0, 50 mM NH4Cl, 0.01% NP-40, 1 mM DTT, 5 mM MgCl2 and 2 mM MnCl2; 2.9 μl of freshly prepared 10 × Buffer) and the final volume was adjusted to 29 μl with ultrapure RNase free water. 4.2 ng (5 μl) of the solution was taken out as time zero reference and diluted with 5 μl loading dye (5 M urea, 44% formamide, 20 mM EDTA, 0.03% bromophenol blue, 0.03% xylene cyanol). The remaining RNAs (20 ng/24 μl) were subjected to 10 nM hDcp2 (250 nM, 1 μl) and the mixtures were incubated at 37°C for 1 h. At defined time points (5, 15, 30 and 60 min), 4 ng of RNA (5 μl) were taken out and the reactions were quenched by adding an equal volume of loading dye. RNAs were resolved electrophoretically on denaturing 15% acrylamide:bisacrylamide 19:1/7 M urea/1 × TBE gel, stained with SYBR Gold (Invitrogen) and visualized using a Typhoon FLA 9500 (GE Healthcare). The decapping progress was determined for each time point by densitometry analysis of the gels, as a ratio between the intensity of the band corresponding to capped RNA and the sum of the intensity of bands from capped and uncapped RNAs. The percentages of remaining capped RNA were then plotted as a function of time.
The RNAs used to determine the capping efficiencies were also useful to study the susceptibility of capped RNA to decapping by hDcp2, the catalytic subunit of the major human mRNA decapping complex Dcp1/Dcp2, which releases m^7GDP and 5′-monophosphorylated RNA (in this case the 26-nt pApG-RNA24; Figure 4C). The progress of decapping at different time points (5, 15, 30 and 60 min) was monitored by HR-PAGE followed by densitometric analysis of the gels (Figure 4C, triplicates of gels are shown in Supplementary Figure S2), and the fraction of remaining capped RNA (27-nt) was plotted as a function of time (Figure 4D-G). […] For better visualization, the data of modified capped RNAs were grouped according to the type of modification present at the 5′ end and presented in separate graphs (Figure 4E–G). To quantify the relative susceptibility to hDcp2, we compared the decapping levels at the 30 min time point (Table 1). For RNAs capped with β-S-triphosphate analogs (1–6, Figure 4E, Table 1), we observed a significant difference in susceptibility to hDcp2 between RP and SP isomers, independent of the methylation pattern.

human eIF4E1a = molecular target: T2, human eIF4E1a (Homo sapiens, UniProt P06730); assay: Fluorescence quenching titration (FQT) binding assay with eIF4E; conditions: for Kd: fluorescence quenching titration, 20 °C, pH 7.2, average of triplicates ± SD, read-out: heIF4E1a KD
T2 construct: made in house; host or cells: E. coli Rosetta 2 (DE3)pLysS
Description: The human eIF4E1a protein was expressed without affinity tag in E. coli Rosseta 2 (DE3)pLysS strain (Novagen) under conditions leading to accumulation of the produced protein in inclusion bodies ([48]). The protein was extracted from inclusion bodies with buffer containing 6 M guanidine hydrochloride, refolded by one-step dialysis against 50 mM HEPES/KOH (pH 7.2), 100 mM KCl, 0.5 mM EDTA, 2 mM DTT, and purified by ion exchange chromatography on HiTrap SP HP 5 ml column (GE Healthcare) using salts gradient. Finally, protein was filtered using Ultrafree MC-HV Centrifugal PVDF filters with 0.45 μm membrane pore (Millipore) to remove protein aggregates and its concentration was determined spectrophotometrically assuming the theoretical extinction coefficient ϵ280nm = 52 940 L mol^−1cm^−1—calculated from amino acid composition using algorithm on ExPASy Server.
Fluorescence titration measurements were carried out on a LS-55 spectrofluorometer (Perkin Elmer Co., Norwalk, CT, USA) in a quartz semi-micro cuvette (Hellma, Germany) with optical lengths 4 mm and 10 mm for absorption and emission, respectively, which was thermostated at 20.0 ± 0.2 °C. The titrations were performed in 50 mM Hepes/KOH pH 7.2, 100 mM KCl, 0.5 mM EDTA and 1 mM DTT by adding 1 μl aliquots of increasing concentrations of the cap solutions to 1.4 ml of 0.1 μM eIF4E1a solution. The eIF4E1a fluorescence was excited at 280 nm and the fluorescence intensity was monitored at a single wavelength 340 nm. The measured fluorescence intensities were corrected for dilution (<4%) and for the inner filter effect. Association equilibrium constants (Kas) were obtained by fitting the theoretical curve for fluorescence intensity (F) upon total concentration of cap analogs ([L]) to the titration data according to the equation: […]
with the concentration of the cap analogs–eIF4E1a complex [cx] given by:
where Δϕ stands for the difference between the fluorescence efficiencies of the apo- and cap analog bound proteins; ϕlig-free is the fluorescence efficiency of the free cap analog; F(0) is the initial fluorescence, and Pact is the total concentration of the active protein ([49]). The final KAS values were calculated as a weighted average from three independent titrations and represented as the KD values. Numerical least-squares nonlinear regression analysis was performed using ORIGIN 2021 from Microcal Software Inc., USA.
Recognition of the mRNA 5′ cap by translation initiation factor 4E (eIF4E) is considered to be the rate-limiting step for the entire translation process ([63],[64]), therefore we investigated the affinity of novel trinucleotide cap analogs to the canonical human eIF4E1a protein by fluorescence quenching titration (FQT; Table 1 column 1, Figure 3) ([65]). As a reference, we determined the dissociation constant between heIF4E1a and the trinucleotide cap-1 structure m^7GpppAmpG, which was equal to 42 nM and very close to the analogous value previously determined for mouse Δ27NeIF4E (46 nM) ([12]). In the case of all modifications tested, the KD values for cap-heIF4E1a complexes are consistent with the results previously obtained for dinucleotide counterparts and murine eIF4E protein, although the magnitude of the modification effect is generally lower. The most tightly bound tetraphosphate analogs (compounds 10–12) show KD values of 6–7 nM, which means that their affinity is about 6-fold higher compared to the triphosphate counterparts. The affinities decrease upon CH2 or CCl2 modification of the tetraphosphate bridge (compounds 13–16), but they are still 4–5 times higher than for the triphosphate analogs with the same adenosine methylation pattern.

T2 sequence (P06730 whole entry): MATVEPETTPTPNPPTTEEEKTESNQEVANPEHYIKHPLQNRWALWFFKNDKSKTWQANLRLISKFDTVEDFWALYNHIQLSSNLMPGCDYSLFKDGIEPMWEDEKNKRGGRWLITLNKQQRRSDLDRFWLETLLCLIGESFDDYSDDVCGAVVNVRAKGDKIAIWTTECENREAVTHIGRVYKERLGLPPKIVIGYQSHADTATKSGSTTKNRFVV

C[n+]1cn([C@@H]2O[C@H](COP(=O)(O)O[P@@](=O)([S-])OP(=O)(O)OC[C@H]3O[C@@H](n4cnc5c(N)ncnc54)[C@H](O)[C@@H]3OP(=O)(O)OC[C@H]3O[C@@H](n4cnc5c(=O)[nH]c(N)nc54)[C@H](O)[C@@H]3O)[C@@H](O)[C@H]2O)c2nc(N)nc(O)c21 [Compound 1, m^7GppSpApG]
Susceptibility to hDcp2 (@30 min) (Human Dcp2): 0.81 ± 0.16 | Kd (human eIF4E1a): 12.6 ± 0.8 nM

C[n+]1cn([C@@H]2O[C@H](COP(=O)(O)O[P@](=O)([S-])OP(=O)(O)OC[C@H]3O[C@@H](n4cnc5c(N)ncnc54)[C@H](O)[C@@H]3OP(=O)(O)OC[C@H]3O[C@@H](n4cnc5c(=O)[nH]c(N)nc54)[C@H](O)[C@@H]3O)[C@@H](O)[C@H]2O)c2nc(N)nc(O)c21 [Compound 2, m^7GppSpApG]
Susceptibility to hDcp2 (@30 min) (Human Dcp2): 0.31 ± 0.09 | Kd (human eIF4E1a): 15.9 ± 0.9 nM

COC1C(OP(=O)(O)OCC2OC(n3cnc4c(=O)[nH]c(N)nc43)C(O)C2O)C(COP(=O)(O)OP(=O)([S-])OP(=O)(O)OCC2OC(n3c[n+](C)c4c(O)nc(N)nc43)C(O)C2O)OC1n1cnc2c(N)ncnc21 (stereo not shown) [Compound 3, m^7GppSpAmpG]
Susceptibility to hDcp2 (@30 min) (Human Dcp2): 0.82 ± 0.09 | Kd (human eIF4E1a): 14 ± 0.8 nM

COC1C(OP(=O)(O)OCC2OC(n3cnc4c(=O)[nH]c(N)nc43)C(O)C2O)C(COP(=O)(O)OP(=O)([S-])OP(=O)(O)OCC2OC(n3c[n+](C)c4c(O)nc(N)nc43)C(O)C2O)OC1n1cnc2c(N)ncnc21 (stereo not shown) [Compound 4, m^7GppSpAmpG]
Susceptibility to hDcp2 (@30 min) (Human Dcp2): 0.32 ± 0.10 | Kd (human eIF4E1a): 16.6 ± 1.1 nM

CNc1ncnc2c1ncn2[C@@H]1O[C@H](COP(=O)(O)O[P@@](=O)([S-])OP(=O)(O)OC[C@H]2O[C@@H](n3c[n+](C)c4c(O)nc(N)nc43)[C@H](O)[C@@H]2O)[C@@H](OP(=O)(O)OC[C@H]2O[C@@H](n3cnc4c(=O)[nH]c(N)nc43)[C@H](O)[C@@H]2O)[C@H]1OC [Compound 6, m^7GppSp^m6AmpG]
Susceptibility to hDcp2 (@30 min) (Human Dcp2): 0.15 ± 0.10 | Kd (human eIF4E1a): 21.7 ± 0.6 nM

C[n+]1cn([C@@H]2O[C@H](COP(=O)(O)OP(=O)(O)OP(=O)([O-])SC[C@H]3O[C@@H](n4cnc5c(N)ncnc54)[C@H](O)[C@@H]3OP(=O)(O)OC[C@H]3O[C@@H](n4cnc5c(=O)[nH]c(N)nc54)[C@H](O)[C@@H]3O)[C@@H](O)[C@H]2O)c2nc(N)nc(O)c21 [Compound 7, m^7Gppp^5’SApG]
Susceptibility to hDcp2 (@30 min) (Human Dcp2): 0.60 ± 0.15 | effect of modification on binding affinity for heIF4E1a (in words) (human eIF4E1a; compared to corresponding triphosphates): virtually no effect on binding affinity | Kd (human eIF4E1a): 31.4 ± 1.9 nM

CO[C@@H]1[C@H](OP(=O)(O)OC[C@H]2O[C@@H](n3cnc4c(=O)[nH]c(N)nc43)[C@H](O)[C@@H]2O)[C@@H](COP(=O)([O-])OP(=O)(O)CP(=O)(O)OP(=O)(O)OC[C@H]2O[C@@H](n3c[n+](C)c4c(O)nc(N)nc43)[C@H](O)[C@@H]2O)O[C@H]1n1cnc2c(N)ncnc21 [Compound 16, m^7GppCH2ppAmpG]
susceptibility of capped RNA to decapping by hDcp2 (in words) (Human Dcp2; 27-nt capped RNA, up to 60 min): significantly reduced the susceptibility to decapping | Susceptibility to hDcp2 (@30 min) (Human Dcp2): 0.27 ± 0.07 | Kd (human eIF4E1a): 12.1 ± 0.5 nM
